Experimental data published in US10647747B2, “Cyclosporin derivatives and uses thereof” (S&T Global Inc., priority 2010, dated 2020).
*1 amine or outer side, *2 acyl side, *3 side chain or, on linkers, in order; H or OH if unused. Where a SMILES comes first, the peptide text is derived from it. [ ]: non-standard residue; d: D form. ξ: configuration not given here. MeBmt = C/C=C/C[C@@H](C)[C@@H](O)[C@H](NC)C(=O)O; X2 = CCN(CC)CCCS[C@H](C(=O)[*:2])N(C)[*:1]; X6 = CCN(CC)CCS[C@H](C(=O)[*:2])N(C)[*:1]; NMeIle(3ξ) = CCC(C)[C@H](NC)C(=O)O; NMeL = CN[C@@H](CC(C)C)C(=O)O; NMeV = CN[C@H](C(=O)O)C(C)C; Abu = CC[C@H](N)C(=O)O

Assay: Stability testing: epimerization of cyclosporin derivatives in methanol, monitored by HPLC
Type: physicochemical
Conditions: for Epimerization %: Table 10, MeOH at 50° C.; for Epimerization % after 168 hours: Table 11, MeOH at 50° C.-58° C.

| Compound | Epimerization % (29 hours) [%] | Epimerization % (77 hours) [%] | Epimerization % (125 hours) [%] | Epimerization % after 168 hours [%] | other results |
| --- | --- | --- | --- | --- | --- |
| C/C=C/C[C@@H](C)[C@@H](O)[C@H]1C(=O)N[C@@H](CC)C(=O)N(C)[C@H](SCCCN2CCOCC2)C(=O)N(C)[C@@H](CC(C)(C)O)C(=O)N[C@@H](C(C)C)C(=O)N(C)[C@@H](CC(C)C)C(=O)N[C@@H](C)C(=O)N[C@H](C)C(=O)N(C)[C@@H](CC(C)C)C(=O)N(C)[C@@H](CC(C)C)C(=O)N(C)[C@@H](C(C)C)C(=O)N1C [drawing 1936] | 0 | 0 | 0 |  |  |
| C/C=C/C[C@@H](C)[C@@H](O)[C@H]1C(=O)N[C@@H](CC)C(=O)N(C)[C@H](SCCCN2CCOCC2)C(=O)N(C)[C@@H](CC(C)(C)OC)C(=O)N[C@@H](C(C)C)C(=O)N(C)[C@@H](CC(C)C)C(=O)N[C@@H](C)C(=O)N[C@H](C)C(=O)N(C)[C@@H](CC(C)C)C(=O)N(C)[C@@H](CC(C)C)C(=O)N(C)[C@@H](C(C)C)C(=O)N1C [drawing 1932] |  |  |  |  | Epimerization % in MeOH at 65° C. (Table 9, 2 hours): 0%; Epimerization % in MeOH at 65° C. (Table 9, 4 hours): 0%; Epimerization % in MeOH at 65° C. (Table 9, 10 hours): 0%; Epimerization % in MeOH at 65° C. (Table 9, 22 hours): 0%; Epimerization % in MeOH at 65° C. (Table 9, 30 hours): 0%; Epimerization % in MeOH at 65° C. (Table 9, 38 hours): 0% |
| C/C=C/C[C@@H](C)[C@@H](O)[C@H]1C(=O)N[C@@H](CC)C(=O)N(C)[C@H](COCCN(CC)CC)C(=O)N(C)[C@@H](CC(C)(C)O)C(=O)N[C@@H](C(C)C)C(=O)N(C)[C@@H](CC(C)C)C(=O)N[C@@H](C)C(=O)N[C@H](C)C(=O)N(C)[C@@H](CC(C)C)C(=O)N(C)[C@@H](CC(C)C)C(=O)N(C)[C@@H](C(C)C)C(=O)N1C |  |  |  | 0 |  |
| C/C=C/C[C@@H](C)[C@@H](O)[C@H]1C(=O)N[C@@H](CC)C(=O)N(C)[C@H](SCCN(CC)CC)C(=O)N(C)[C@@H](C(C)CC)C(=O)N[C@@H](C(C)C)C(=O)N(C)[C@@H](CC(C)C)C(=O)N[C@@H](C)C(=O)N[C@H](C)C(=O)N(C)[C@@H](CC(C)C)C(=O)N(C)[C@@H](CC(C)C)C(=O)N(C)[C@@H](C(C)C)C(=O)N1C (stereo partly drawn) (cyclo(A[dA][NMeL][NMeL][NMeV][MeBmt][Abu][X6][NMeIle(3ξ)]V[NMeL])) | ~4 | ~10 | ~16 |  |  |

More lines, main results first:

| Epimerization % (29 hours) [%] | Epimerization % (77 hours) [%] | Epimerization % (125 hours) [%] | Epimerization % after 168 hours [%] | Compound | other results |
| --- | --- | --- | --- | --- | --- |
|  |  |  | 0 | C/C=C/C[C@@H](C)[C@@H](O)[C@H]1C(=O)N[C@@H](CC)C(=O)N(C)[C@H](CSCCN(C)C)C(=O)N(C)[C@@H](CC(C)C)C(=O)N[C@@H](C(C)C)C(=O)N(C)[C@@H](CC(C)C)C(=O)N[C@@H](C)C(=O)N[C@H](C)C(=O)N(C)[C@@H](CC(C)C)C(=O)N(C)[C@@H](CC(C)C)C(=O)N(C)[C@@H](C(C)C)C(=O)N1C (single isomer, unassigned) |  |
| 0 | 0 | 0 |  | C/C=C/C[C@@H](C)[C@@H](O)[C@H]1C(=O)N[C@@H](CC)C(=O)N(C)[C@H](SCCCN(CC)CC)C(=O)N(C)[C@@H](C(C)CC)C(=O)N[C@@H](C(C)C)C(=O)N(C)[C@@H](CC(C)C)C(=O)N[C@@H](C)C(=O)N[C@H](C)C(=O)N(C)[C@@H](CC(C)C)C(=O)N(C)[C@@H](CC(C)C)C(=O)N(C)[C@@H](C(C)C)C(=O)N1C (stereo partly drawn) (cyclo(A[dA][NMeL][NMeL][NMeV][MeBmt][Abu][X2][NMeIle(3ξ)]V[NMeL])) |  |
|  |  |  | 0 | C/C=C/C[C@@H](C)[C@@H](O)[C@H]1C(=O)N[C@@H](CC)C(=O)N(C)[C@H](CSCCN(CC)CC)C(=O)N(C)[C@@H](CC(C)(C)O)C(=O)N[C@@H](C(C)C)C(=O)N(C)[C@@H](CC(C)C)C(=O)N[C@@H](C)C(=O)N[C@H](C)C(=O)N(C)[C@@H](CC(C)C)C(=O)N(C)[C@@H](CC(C)C)C(=O)N(C)[C@@H](C(C)C)C(=O)N1C |  |
